# In US7696246B2 (Ligand Pharmaceuticals Incorporated, priority 1999, dated 2010):
# Where two headings read alike, the source gives them in different places.
# Assays:
# PR [1] = target: T1, PR (Homo sapiens, UniProt P06401); test: PR competitive binding assay; conditions: Cheng-Prusoff
# T1 sequence (P06401 1-933): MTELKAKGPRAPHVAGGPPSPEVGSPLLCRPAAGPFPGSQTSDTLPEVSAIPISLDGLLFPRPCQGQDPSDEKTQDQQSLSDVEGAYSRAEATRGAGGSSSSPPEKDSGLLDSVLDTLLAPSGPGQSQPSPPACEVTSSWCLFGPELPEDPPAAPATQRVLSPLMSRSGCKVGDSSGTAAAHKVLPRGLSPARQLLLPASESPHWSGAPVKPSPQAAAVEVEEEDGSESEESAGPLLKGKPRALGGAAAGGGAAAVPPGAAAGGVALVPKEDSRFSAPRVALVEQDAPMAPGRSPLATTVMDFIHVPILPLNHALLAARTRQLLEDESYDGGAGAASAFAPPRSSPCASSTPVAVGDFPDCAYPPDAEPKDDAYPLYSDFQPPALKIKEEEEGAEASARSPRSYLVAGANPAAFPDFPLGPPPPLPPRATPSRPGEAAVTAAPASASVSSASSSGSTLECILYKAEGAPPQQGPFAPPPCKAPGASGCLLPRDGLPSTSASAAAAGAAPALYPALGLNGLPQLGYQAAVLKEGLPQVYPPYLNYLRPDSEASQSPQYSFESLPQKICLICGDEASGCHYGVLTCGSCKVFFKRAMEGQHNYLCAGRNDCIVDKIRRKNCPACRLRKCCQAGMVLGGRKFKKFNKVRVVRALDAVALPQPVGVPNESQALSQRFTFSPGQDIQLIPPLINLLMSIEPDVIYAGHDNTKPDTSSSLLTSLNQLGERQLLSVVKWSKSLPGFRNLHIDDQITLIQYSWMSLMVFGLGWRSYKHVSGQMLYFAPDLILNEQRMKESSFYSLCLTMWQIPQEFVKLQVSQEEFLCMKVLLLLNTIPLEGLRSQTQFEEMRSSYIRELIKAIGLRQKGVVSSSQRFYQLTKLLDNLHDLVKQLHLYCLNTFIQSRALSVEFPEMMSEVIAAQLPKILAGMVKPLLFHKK
# Method: After correcting for non-specific binding, IC50 values were determined. […] The IC50 value was determined graphically from a log-logit plot of the data. The Ki values were determined by application of the Cheng-Prusoff equivuation to the IC50 values, the labeled ligand concentration and the Kd of the labeled ligand.
# PR [2] = target: T1, PR; test: Co-transfection assay, PR antagonist activity (CV-1 cells, in presence of progesterone); format: cell-based; set-up: expressed in transfected cells; host or cells: CV-1 cells; conditions: for PR Antagonist CV-1 Cells Efficacy (%): percent maximal inhibition, progesterone at its EC50
# PR [3] = target: T1, PR; test: Co-transfection assay, PR agonist activity (CV-1 cells); format: cell-based; set-up: expressed in transfected cells; host or cells: CV-1 cells; conditions: for EC50: agonist potency EC50; for PR Agonist CV-1 Cells Efficacy (%): percent maximal response relative to reference agonist progesterone
# human AR [4] = target: T2, human AR (Homo sapiens, UniProt P10275); test: AR whole cell competitive binding assay (COS-1 cells, 3H-DHT); conditions: 1 nM 3H-DHT, Cheng-Prusoff
# T2 sequence (P10275 1-920): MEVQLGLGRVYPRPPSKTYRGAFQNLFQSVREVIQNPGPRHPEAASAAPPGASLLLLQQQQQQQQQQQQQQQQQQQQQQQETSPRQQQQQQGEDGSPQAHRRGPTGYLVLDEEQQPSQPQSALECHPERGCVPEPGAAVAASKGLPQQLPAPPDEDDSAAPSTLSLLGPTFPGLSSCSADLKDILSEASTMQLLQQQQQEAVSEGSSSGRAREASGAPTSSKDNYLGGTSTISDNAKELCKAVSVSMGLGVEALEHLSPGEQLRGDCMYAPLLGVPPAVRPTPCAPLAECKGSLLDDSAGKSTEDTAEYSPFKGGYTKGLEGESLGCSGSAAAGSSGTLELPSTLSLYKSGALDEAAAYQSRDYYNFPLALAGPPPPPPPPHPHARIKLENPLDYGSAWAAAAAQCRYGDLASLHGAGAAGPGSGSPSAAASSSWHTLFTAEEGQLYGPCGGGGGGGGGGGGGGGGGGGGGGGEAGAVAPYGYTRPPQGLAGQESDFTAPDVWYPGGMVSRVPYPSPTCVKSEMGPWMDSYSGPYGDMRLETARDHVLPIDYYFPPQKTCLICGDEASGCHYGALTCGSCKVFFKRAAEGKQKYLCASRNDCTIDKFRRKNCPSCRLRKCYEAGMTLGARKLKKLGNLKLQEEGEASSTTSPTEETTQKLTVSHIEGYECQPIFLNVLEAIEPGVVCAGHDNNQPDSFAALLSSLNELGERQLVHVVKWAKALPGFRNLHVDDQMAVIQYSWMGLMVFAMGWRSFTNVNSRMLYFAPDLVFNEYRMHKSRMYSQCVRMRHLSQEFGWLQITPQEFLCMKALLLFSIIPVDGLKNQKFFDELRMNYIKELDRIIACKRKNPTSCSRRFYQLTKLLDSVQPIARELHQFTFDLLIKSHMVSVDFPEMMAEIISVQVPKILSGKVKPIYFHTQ
# human AR [5] = target: T2, human AR; test: Co-transfection assay, AR agonist activity (CV-1 cells, MTV-LUC reporter); format: cell-based; conditions: CV-1 cells; for EC50: agonist potency EC50
# human AR [6] = target: T2, human AR; test: Co-transfection assay, AR antagonist activity (CV-1 cells, in presence of DHT); format: cell-based; conditions: for AR Antagonist CV-1 Cells Efficacy (%): percent maximal inhibition, DHT at its EC50; for IC50: read-out: AR Antagonist CV-1 Cells Potency
# [7] = read-out: PR Antagonist CV-1 Cells Potency
Compound,Ki (PR [1]) [nM],IC50 (PR [2]) [nM],PR Antagonist CV-1 Cells Efficacy (%) (PR [2]),EC50 (PR [3]) [µM],PR Agonist CV-1 Cells Efficacy (%) (PR [3]),IC50 (PR [2]; [7]) [nM],Ki (human AR [4]) [nM],EC50 (human AR [5]) [µM],AR Agonist CV-1 Cells Efficacy (%) (human AR [5]; percent maximal response relative to reference agonist DHT),AR Antagonist CV-1 Cells Efficacy (%) (human AR [6]),IC50 (human AR [6]) [nM]
"CCCC(C)N(CCC)c1ccc2[nH]c(=O)cc(C(F)(F)F)c2c1 (racemic) [Compound 251, (±)-6-(N-Propyl-N-1-methylbutyl)amino-4-trifluoromethyl-2(1H)-quinolinone]",930,747,91%,> 10,"na (na = not active (i.e. efficacy of <20 and potency of >10,000))",–,–,–,–,–,–
"CC1(C)OC(=S)Nc2ccc(C3=CC(O)CCC3)cc21 (racemic) [Compound 697, (±)-6-(3-Hydroxy-1-)cyclohexenyl-1,4-dihydro-4,4-dimethyl-1,3-benzo[d]oxazin-2-thione]",> 1000,–,58%,> 10,"na (na = not active (i.e. efficacy of <20 and potency of >10,000))",316,–,–,–,–,–
"CCN(CC(C)(C)C)c1ccc2[nH]c(=O)cc(C(F)(F)F)c2c1 [Compound 242, 6-(N-Ethyl-N-2,2-dimethylpropyl)amino-4-trifluoromethyl-2(1H)-quinolinone]",70,200,95%,> 10,"na (na = not active (i.e. efficacy of <20 and potency of >10,000))",–,32,0.0028,66,"na (na = not active (i.e. efficacy of <20 and potency of >10,000))",> 10000
"CC(C)CN(CC(F)(F)F)c1cc2c(C(F)(F)F)cc(=O)[nH]c2cc1O [Compound 473, 6-(N-Isobutyl-N-2,2,2-trifluoroethyl)amino-7-hydroxy-4-trifluoromethyl-2(1H)-quinolinone]",508,880,55%,> 10,"na (na = not active (i.e. efficacy of <20 and potency of >10,000))",–,–,–,–,–,–
"FC(F)(F)c1cc(=S)[nH]c2ccc(C3CCCCC3)cc12 [Compound 631, 6-Cyclohexyl-4-trifluoromethyl-2(1H)-thioquinolinone]",136,796,75%,> 10,"na (na = not active (i.e. efficacy of <20 and potency of >10,000))",–,–,–,–,–,–
"CC1(C)OC(=O)Nc2ccc(C3CCCCCC3)cc21 [Compound 671, 6-(1-Cycloheptyl)-1,4-dihydro-4,4-dimethyl-1,3-benzo[d]oxazin-2-one]",> 1000,–,62%,> 10,"na (na = not active (i.e. efficacy of <20 and potency of >10,000))",200,–,–,–,–,–
"CC1(C)OC(=S)Nc2ccc(C3=CC(=O)CCC3)cc21 [Compound 695, 6-(3-Oxo-1-)cyclohexenyl-1,4-dihydro-4,4-dimethyl-1,3-benzo[d]oxazin-2-thione]",203,–,90%,> 10,"na (na = not active (i.e. efficacy of <20 and potency of >10,000))",20,–,–,–,–,–
"CC(C)c1ccc2c(c1)CN(C)C(=O)N2 [Compound 721, 3,4-Dihydro-6-isopropyl-3-methyl-2(1H)-quinazolinone]",–,–,–,–,–,–,> 1000,> 10,–,85%,32
"O=c1cc(C(F)(F)F)c2cc(-c3cccc([N+](=O)[O-])c3)ccc2[nH]1 [Compound 727, 4-Trifluoromethyl-6-(3-nitro)phenyl-2(1H)-quinolinone]",161,108,90%,> 10,"na (na = not active (i.e. efficacy of <20 and potency of >10,000))",–,–,–,–,–,–
"N#Cc1cc(F)cc(-c2ccc3[nH]c(=O)cc(C(F)(F)F)c3c2)c1 [Compound 731, 4-Trifluoromethyl-6-(3-fluoro-5-cyano)phenyl-2(1H)-quinolinone]",154,64,89%,> 10,"na (na = not active (i.e. efficacy of <20 and potency of >10,000))",–,–,–,–,–,–
"CC(=O)c1cccc(-c2ccc3[nH]c(=O)cc(C(F)(F)F)c3c2)c1 [Compound 735, 4-Trifluoromethyl-6-(3-acetylphenyl)-2(1H)-quinolinone]",915,326,84%,> 10,"na (na = not active (i.e. efficacy of <20 and potency of >10,000))",–,–,–,–,–,–
"Cc1cccc(-c2ccc3[nH]c(=O)cc(C(F)(F)F)c3c2)c1 [Compound 738, 4-Trifluoromethyl-6-(3-methylphenyl)-2(1H)-quinolinone]",–,–,–,–,–,–,> 1000,> 10,–,91%,27
"O=c1cc(C(F)(F)F)c2cc(-c3cccc(F)c3)ccc2[nH]1 [Compound 741, 4-Trifluoromethyl-6-(3-fluorophenyl)-2(1H)-quinolinone]",–,–,–,–,–,–,322,> 10,–,92%,27
"O=c1cc(C(F)(F)F)c2cc(-c3ccc(Cl)cc3Cl)ccc2[nH]1 [Compound 753, 4-Trifluoromethyl-6-(2,4-dichlorophenyl)-2(1H)-quinolinone]",–,–,–,–,–,–,74,> 10,–,76%,51
"COc1cccc(-c2ccc3[nH]c(=O)cc(C)c3c2)c1 [Compound 758, 4-Methyl-6-(3-methoxyphenyl)-2(1H)-quinolinone]",–,–,–,–,–,–,3.6,> 10,–,94%,87
"O=c1cc(C(F)(F)F)c2cc(-c3ccccc3)ccc2[nH]1 [Compound 764, 4-Trifluoromethyl-6-phenyl-2(1H)-quinolinone]",–,–,–,–,–,–,16,> 10,–,87%,30
"CC(=O)[C@H]1CC[C@H]2[C@@H]3CCC4=CC(=O)CC[C@]4(C)[C@H]3CC[C@]12C [Prog, progesterone, reference compound]",–,–,"na (na = not active (i.e. efficacy of <20 and potency of >10,000))",–,100%,–,–,–,–,–,–
"CN(C)c1ccc([C@H]2C[C@]3(C)[C@@H](CC[C@]3(O)CCCO)[C@@H]3CCC4=CC(=O)CCC4=C32)cc1 [ZK299, reference compound]",–,–,95%,–,"na (na = not active (i.e. efficacy of <20 and potency of >10,000))",–,–,–,–,–,–
